Test results taken from patent US20140073631A1 (priority 2012, published 2014).
In brackets after ≈: the same amount, converted by molar mass. Read-outs that look alike come from different tables or passages of the source.

How the values were obtained:
Yersinia pestis = assay: microbe, parasite or virus in culture; type: cell-based; conditions: Yersinia pestis
Bacillus anthracis = assay: microbe, parasite or virus in culture; type: cell-based; conditions: Bacillus anthracis
Francisella tularensis = assay: microbe, parasite or virus in culture; type: cell-based; conditions: Francisella tularensis
Burkholderia mallei = assay: microbe, parasite or virus in culture; type: cell-based; conditions: Burkholderia mallei
H37Rv Colorado strain [1] = assay: TB MIC Testing (Table 9); type: cell-based; conditions: Mycobacterium tuberculosis, read-out: MIC Value, Standard Test Strain H27Rv
H37Rv Colorado strain [2] = assay: MBC Determination with H37Rv Colorado strain (Table 9); type: cell-based; conditions: Mycobacterium tuberculosis; Performed with H37Rv
TB = assay: DMID TB MIC Results (Table 10); type: cell-based; conditions: Mycobacterium tuberculosis; solvent DMSO
B. anthracis = assay: microbe, parasite or virus in culture; type: cell-based; conditions: Bacillus anthracis, read-out: MIC B. anthracis
B. mallei = assay: microbe, parasite or virus in culture; type: cell-based; conditions: Burkholderia mallei, read-out: MIC B. mallei
B. pseudomallei = assay: microbe, parasite or virus in culture; type: cell-based; conditions: Burkholderia pseudomallei, read-out: MIC B. pseudomallei
F. tularensis = assay: microbe, parasite or virus in culture; type: cell-based; conditions: Francisella tularensis, read-out: MIC F. tularensis (Original Test)
Y. pestis = assay: microbe, parasite or virus in culture; type: cell-based; conditions: Yersinia pestis, read-out: MIC Y. pestis
E. coli = assay: microbe, parasite or virus in culture; type: cell-based; conditions: Escherichia coli, read-out: MIC E. coli
P. aeruginosa = assay: microbe, parasite or virus in culture; type: cell-based; conditions: Pseudomonas aeruginosa, read-out: MIC P. aeruginosa
Plasmodium falciparum = assay: Anti-malaria testing; type: cell-based
Vero Cells = assay: Cytotoxicity Assay, CellTiter-Glo Luminescent Cell Viability Assay
[3] = test system: Burkholderia pseudomallei; assay: microbe, parasite or virus in culture; type: cell-based
HIV-1 = assay: CEM-SS microtiter antiviral XTT cytoprotection assay; type: cell-based
Y. pestis C092 = type: in vivo, BALB/c mice; conditions: 21 days
F. tularensis SCHU S4 = test system: F. tularensis SCHU S4; parameters: species or system BALB/c mice; conditions: mouse, in vivo
[4] = average of Test 1 and Test 2, read-out: Average IC50

CC1COc2c(N3CCN(C(=N)NC#N)CC3)c(F)cc3c(=O)c(C(=O)O)cn1c23 (stereo not drawn) [BVS-60C (XVII)] was tested, and the MIC90 (Yersinia pestis) was < 4 µg/mL, the MIC90 (Bacillus anthracis) was ≤ 0.25 µg/mL and the MIC90 (Francisella tularensis) was < 4 µg/mL. For the same compound, the MIC90 (Burkholderia mallei) was < 4 µg/mL, the MIC (H37Rv Colorado strain [1]) was 0.312 µg/mL (≈ 0.753 µM) and the MBC (H37Rv Colorado strain [2]) was 0.625 µg/mL (≈ 1.51 µM). It also gave an IC50 (TB) of 0.22 µg/mL (≈ 0.531 µM), an IC90 (TB) of 0.23 µg/mL (≈ 0.555 µM) and an MIC (TB) of 0.312 µg/mL (≈ 0.753 µM). The MIC (B. anthracis) was < 0.06 µg/mL, the MIC (B. mallei) was 1 µg/mL (≈ 2.41 µM) and the MIC (B. pseudomallei) was 1 to 2 µg/mL (≈ 2.41 to 4.83 µM). The MIC (F. tularensis) was < 0.06 µg/mL, the MIC (Y. pestis) was 0.06 µg/mL (≈ 0.145 µM) and the MIC (E. coli) was 0.06 to 0.12 µg/mL (≈ 0.145 to 0.29 µM). The MIC (P. aeruginosa) was 2 µg/mL (≈ 4.83 µM), the IC50 (Plasmodium falciparum; [4]) was 6.11 µM and the IC50 (Plasmodium falciparum; read-out: IC50 Test 1) was 6.11 µM. The “% Viability” value (Vero Cells; 0.01 μg/ml) was 93%, the “% Viability” value (Vero Cells; 0.02 μg/ml) was 95% and the “% Viability” value (Vero Cells; 5 μg/ml) was 92%. For the same compound, the “% Viability” value (Vero Cells; 10 μg/ml) was 88% and the “% Viability” value (Vero Cells; 20 μg/ml, vs […] DMSO controls) was 96%.

Work on C[C@@H]1COc2c(N3CCN(C(=N)NC(=N)NCCCCCCNC(=N)NC(=N)N4CCN(c5c(F)cc6c(=O)c(C(=O)O)cn7c6c5OC[C@@H]7C)CC4)CC3)c(F)cc3c(=O)c(C(=O)O)cn1c23 [BVS-85A (XVII)] yielded an MIC (H37Rv Colorado strain [1]) of 1.25 µg/mL (≈ 1.32 µM), an MBC (H37Rv Colorado strain [2]) of 1.25 µg/mL (≈ 1.32 µM) and an IC50 (TB) of 0.53 µg/mL (≈ 0.561 µM). The IC90 (TB) was 0.57 µg/mL (≈ 0.603 µM), the MIC (TB) was 0.625 µg/mL (≈ 0.661 µM) and the MIC (B. anthracis) was < 0.06 µg/mL. For the same compound, the MIC (B. mallei) was 0.5 µg/mL (≈ 0.529 µM), the MIC (B. pseudomallei) was 8 µg/mL (≈ 8.47 µM) and the MIC (F. tularensis) was < 0.06 µg/mL. The MIC (Y. pestis) was 0.06 to 0.12 µg/mL (≈ 0.0635 to 0.127 µM), the MIC (E. coli) was < 0.06 µg/mL and the MIC (P. aeruginosa) was 0.5 µg/mL (≈ 0.529 µM). The IC50 (Plasmodium falciparum; [4]) was 7.26 µM, the IC50 (Plasmodium falciparum; read-out: IC50 Test 1) was 5.45 µM and the IC50 (Plasmodium falciparum; read-out: IC50 Test 2) was 9.06 µM. For the same compound, the “% Viability” value (Vero Cells; 0.01 μg/ml) was 109%, the “% Viability” value (Vero Cells; 0.02 μg/ml) was 109% and the “% Viability” value (Vero Cells; 5 μg/ml) was 106%. The “% Viability” value (Vero Cells; 10 μg/ml) was 101% and the “% Viability” value (Vero Cells; 20 μg/ml, vs […] DMSO controls) was 107%.

In the case of O=C(O)C1=C(c2ccc(F)c(N3CCNCC3)c2)N(C23CC4CCC(C2)C(C4)C3)C(=O)CC1 (stereo not drawn) [BVS-97E (XIV)], the MIC (B. anthracis) is reported as 4 µg/mL (≈ 8.82 µM), the MIC (B. mallei) is reported as > 64 µg/mL and the MIC (B. pseudomallei) is reported as > 64 µg/mL. For the same compound, the MIC (F. tularensis) was 0.5 to 4 µg/mL (≈ 1.1 to 8.82 µM), the MIC (Y. pestis) was > 64 µg/mL and the MIC (E. coli) was 16 to 32 µg/mL (≈ 35.3 to 70.6 µM). For the same compound, the MIC (P. aeruginosa) was > 64 µg/mL.

With CC(C)(O/N=C(\C(=O)N[C@@H]1C(=O)N2C(C(=O)[O-])=C(C[n+]3ccccc3)CS[C@H]12)c1csc(N)n1)C(=O)O [Ceftazidime, ceftazidime, reference compound] the “MIC Range” value [3] was 0.5 to 32 µg/mL, the MIC50 ([3]; Burkholderia pseudomallei) was 2 µg/mL (≈ 3.66 µM) and the MIC90 ([3]; Burkholderia pseudomallei) was 4 µg/mL (≈ 7.32 µM).

For O=C(O)c1cn(C2CC2)c2cc(N3CCNCC3)c(F)cc2c1=O [Ciprofloxacin, ciprofloxacin, reference compound], the MIC (B. anthracis) was < 0.03 µg/mL, the MIC (B. mallei) was 1 µg/mL (≈ 3.02 µM) and the MIC (B. pseudomallei) was 0.5 to 1 µg/mL (≈ 1.51 to 3.02 µM). For the same compound, the MIC (E. coli) was 0.015 to 0.06 µg/mL (≈ 0.0453 to 0.181 µM) and the MIC (P. aeruginosa) was 0.25 µg/mL (≈ 0.754 µM).

Nc1ccn([C@H]2CC[C@@H](CO)O2)c(=O)n1 [DDC, di-deoxycytosine, reference compound] was tested, and the “% RED. IN VIRAL CPE” value (HIV-1; 0.00003 μM) was 1%, the “% RED. IN VIRAL CPE” value (HIV-1; 0.0001 μM) was 5% and the “% RED. IN VIRAL CPE” value (HIV-1; 0.00032 μM) was 6%. For the same compound, the “% RED. IN VIRAL CPE” value (HIV-1; 0.001 μM) was 4%, the “% RED. IN VIRAL CPE” value (HIV-1; 0.0032 μM) was 8% and the “% RED. IN VIRAL CPE” value (HIV-1; 0.01 μM) was 9%. The “% RED. IN VIRAL CPE” value (HIV-1; 0.032 μM) was 75%, the “% RED. IN VIRAL CPE” value (HIV-1; 0.1 μM) was 81% and the “% RED. IN VIRAL CPE” value (HIV-1; 0.32 μM) was 92%. For the same compound, the “% RED. IN VIRAL CPE” value (HIV-1; 1 μM) was 86%, the “% RED. IN VIRAL CPE” value (HIV-1; 3.2 μM) was 100% and the “% RED. IN VIRAL CPE” value (HIV-1; 10 μM) was 100%. For the same compound, the “% CELL VIABILITY” value (CEM-SS cells; 0.00003 μM) was 100%, the “% CELL VIABILITY” value (CEM-SS cells; 0.0001 μM) was 93% and the “% CELL VIABILITY” value (CEM-SS cells; 0.00032 μM) was 99%. For the same compound, the “% CELL VIABILITY” value (CEM-SS cells; 0.001 μM) was 100%, the “% CELL VIABILITY” value (CEM-SS cells; 0.0032 μM) was 100% and the “% CELL VIABILITY” value (CEM-SS cells; 0.01 μM) was 100%. For the same compound, the “% CELL VIABILITY” value (CEM-SS cells; 0.032 μM) was 100%, the “% CELL VIABILITY” value (CEM-SS cells; 0.1 μM) was 96% and the “% CELL VIABILITY” value (CEM-SS cells; 0.32 μM) was 97%. For the same compound, the “% CELL VIABILITY” value (CEM-SS cells; 1 μM) was 100%, the “% CELL VIABILITY” value (CEM-SS cells; 3.2 μM) was 100% and the “% CELL VIABILITY” value (CEM-SS cells; 10 μM) was 100%.

NNC(=O)c1ccncc1 [Isoniazid, isoniazid, reference compound] showed an MIC (H37Rv Colorado strain [1]) of 0.031 µg/mL (≈ 0.226 µM), an MBC (H37Rv Colorado strain [2]) of 0.031 µg/mL (≈ 0.226 µM) and an MIC (TB) of 0.06 µg/mL (≈ 0.438 µM).

C[C@H]1COc2c(N3CCN(C)CC3)c(F)cc3c(=O)c(C(=O)O)cn1c23 [Levofloxacin, reference compound] was tested, and the survival (Y. pestis C092) was 88.9% and the survival (F. tularensis SCHU S4) was 100%.
